Tests used:
[1] = tested on: hematopoietic system (5-FU toxicity); assay: TAU dose-response on hematopoietic recovery after 5-FU (Example 2); assay type: in vivo, female Balb/C mice; set-up: Marrow: unit not given here; conditions: for HCT (11d): eleven days after 5-FU
Procedure: Seventy female Balb/C mice weighing approximately twenty grams were each given an i.p. injection of 5-FU (150 mg/kg) at 1:00 p.m. on the initial day of the study. These animals were then divided into five different treatment groups: control (water), and oral TAU at doses of 100, 250, 500, and 1,000 mg/kg/treatment. The test compounds were then given at 3:00, 5:00, 7:30, and 10:00 p.m. on the day of 5-FU administration; at 9:00 a.m., 11:00 a.m., and 1:00, 3:00, 6:00, and 10:00 p.m. the following day; and a final administration at 11:00 a.m. two days following the single 5-FU injection. Each treatment was given orally in a volume of 0.2 ml water (by gavage), except the highest dose of TAU which was administered in 0.4 ml of water.
On days seven and eleven following 5-FU administration, blood (0.2–0.3 ml) was collected from seven mice in each group by retro-orbital bleeding into EDTA for subsequent differential blood cell counting. Mice were sacrificed by cervical dislocation; their right femurs removed and the contents expelled for cell counting; and their spleens removed and weighed.

[2] = tested on: hematopoietic system (AZT toxicity); assay: Oral TAU vs hematopoietic damage by AZT in drinking water (Example 8); assay type: in vivo, Balb/C female mice
Procedure: Forty-two Balb/C female mice, each weighing approximately 19 grams, were divided into three different groups of 14 animals each. The three groups were: basal (no AZT, no treatment), control (AZT, water), and TAU (AZT, TAU at 460 mg/kg/treatment). AZT was administered ad libitum in the drinking water at a concentration of 1.5 mg/ml throughout the course of the experiment. The volume of AZT solution consumed in all treatment groups was similar and averaged 2.25 ml per day per mouse, resulting in a daily AZT dose of about 170 mg/kg per day. Water and TAU were administered in a volume of 0.2 mL three times per day for the first 24 days of the study, and twice each day thereafter.
(§1) All of the animals were weighed on the day the experiment began, once each week, and immediately prior to sacrifice. After weighing the mice on days 24 and 35, blood (0.2–0.3 ml) was collected from seven mice in each group by retro-orbital bleeding into EDTA for subsequent differential blood cell counting, including reticulocytes. Mice were then sacrificed by cervical dislocation; their right femurs removed and the contents expelled for cell counting; and their spleens removed and weighed.

[3] = tested on: hematopoietic system (AZT toxicity); assay: Oral TAU vs hematopoietic damage by i.p. AZT (Example 9); assay type: in vivo, female Balb/C mice
Procedure: AZT (100 mg/kg i.p.) was given three times daily at 9 a.m., 4 p.m., and at 10 p.m. to fifty-six female Balb/C mice weighing approximately 19 grams each. Three times each day, at 9 a.m., 4 p.m., and 10 p.m., animals were treated with either water (control) or TAU at doses of 230, 460, or 920 mg/kg/treatment by oral intubation. Treatment volume was 0.2 ml for the control and TAU 460 groups, 0.1 ml for the TAU 230 group, and 0.4 ml for the TAU 920 group. One additional group of fourteen mice was not given AZT or any treatments (basal).
as §1, with “on day six” for “once each week,”, “on day 13.” for “immediately prior to sacrifice.”, “six” for “24”, “thirteen” for “35,”

[4] = Plasma uridine after oral uridine or TAU, with or without dipyridamole (Example 12); assay type: in vivo, female Balb/C mice
Procedure: Female Balb/C mice with a body weight of 20 grams were divided into four groups of 8 animals each: [table] Dipyridamole was administered by intraperitoneal injection 30 minutes prior to uridine or TAU Uridine was administered orally by gavage as an aqueous solution in a volume of 0.4 ml. TAU was administered by gavage in an emulsion vehicle (1:1 corn oil/water with 2.5% Tween 80). Two mice from each group were bled from the suborbital plexus at each time point: 0 (Basal uridine levels before TAU or uridine administration), 0.5, 1, 2, and 4 hours after administration of TAU or uridine Plasma samples (0.1 ml) were deproteinized by addition of 0.2 ml methanol followed by centrifugation. Samples were lyophilized and then reconstituted with HPLC buffer (100 mM ammonium acetate, pH 6.5, for subsequent assay of uridine by reverse phase HPLC with UV absorbance detection (254 nm). Data points are the mean of two samples for each time point.

[5] = seven days after 5-FU, oral TAU 100 mg/kg/treatment
[6] = seven days after 5-FU, oral TAU 250 mg/kg/treatment
[7] = seven days after 5-FU, oral TAU 500 mg/kg/treatment
[8] = seven days after 5-FU, oral TAU 1000 mg/kg/treatment
[9] = day 24, AZT in drinking water + oral TAU 460 mg/kg/treatment
[10] = day 35, AZT in drinking water + oral TAU 460 mg/kg/treatment
[11] = day 13, AZT i.p. + oral TAU 460 mg/kg/treatment

Structure (SMILES): CC(=O)OC[C@H]1O[C@@H](n2ccc(=O)[nH]c2=O)[C@H](OC(C)=O)[C@@H]1OC(C)=O [TAU, triacetyluridine]
- Total neutrophil counts vs control ([1]; day eleven after 5-FU, TAU 250, 500, and 1,000 groups): significantly greater than control values
- Spleen weight ([1]; day eleven after 5-FU, TAU 250 group): 104.2 ± 3.5 mg
- Red blood cell counts ([1]; day eleven after 5-FU, TAU 500 group): 8.72±0.18 ×10^6 per microliter
- Red blood cell counts ([1]; day eleven after 5-FU, TAU 1000 group): 8.63±0.16 ×10^6 per microliter
- Total neutrophil counts, fold of controls ([1]; day seven after 5-FU, TAU 1,000 group): approximately three-fold
- HCT (11d) ([1]; T100): 36.80
- HCT (11d) ([1]; T250): 37.47 ± .83
- HCT (11d) ([1]; T500): 41.16 ± .88
- HCT (11d) ([1]; T1000): 41.55 ± .77
- Marrow ([1]; seven days after 5-FU 150 mg/kg i.p., oral TAU 100 mg/kg/treatment): 1.77 ± .18
- HCT (7d) ([1]; seven days after 5-FU, T100): 37.77
- HCT (7d) ([1]; seven days after 5-FU, T250): 40.04 ± .38
- HCT (7d) ([1]; seven days after 5-FU, T500): 39.50 ± .61
- HCT (7d) ([1]; seven days after 5-FU, T1000): 40.84 ± .68
- Lym [1, 5]: 2.46 ± .04 K/μl
- Neut [1, 5]: .014 ± .008 K/μl
- PLT [1, 5]: 440 ± 46 K/μl
- RBC [1, 5]: 8.20 ± .07 M/μl
- WBC [1, 5]: 2.47 ± .04 K/μl
- Lym [1, 6]: 2.71 ± .20 K/μl
- Marrow [1, 6]: 2.91 ± .48
- Neut [1, 6]: .027 ± .012 K/μl
- PLT [1, 6]: 601 ± 46 K/μl
- RBC [1, 6]: 8.51 ± .06 M/μl
- WBC [1, 6]: 2.76 ± .20 K/μl
- Lym [1, 7]: 3.99 ± .15 K/μl
- Marrow [1, 7]: 3.93 ± .39
- Neut [1, 7]: .037 ± .020 K/μl
- PLT [1, 7]: 712 ± 42 K/μl
- RBC [1, 7]: 8.43 ± .16 M/μl
- WBC [1, 7]: 4.06 ± .14 K/μl
- Lym [1, 8]: 3.44 ± .23 K/μl
- Marrow [1, 8]: 4.42 ± .34
- Neut [1, 8]: .071 ± .027 K/μl
- PLT [1, 8]: 715 ± 35 K/μl
- RBC [1, 8]: 8.65 ± .15 M/μl
- WBC [1, 8]: 3.57 ± .25 K/μl
- Body weights ([2]; day 7, AZT […] in drinking water + oral TAU 460 mg/kg/treatment): 19.51±0.38 grams
- RBC counts [2, 9]: 9.01±0.09
- Total neutrophil counts [2, 9]: 0.91±0.06
- HCT [2, 10]: 41.26 ± .62 percentage
- HGB [2, 10]: 15.14 ± .12 gm/dl
- MCH (mean cell hematocrit) [2, 10]: 18.49 ± .28 picograms
- MCV [2, 10]: 50.41 ± .48 fL
- PLT [2, 10]: 809 ± 06 K/μl
- RBC [2, 10]: 8.20 ± .20 M/μl
- reticulocyte levels [2, 10]: 0.371 ×10^6 per microliter
- HCT [3, 11]: 40.83 ± 0.37%
- HGB [3, 11]: 14.54 ± G/dL
- Lymph. [3, 11]: 6.06 ± 0.38 K/μl
- Neutro. [3, 11]: 0.62 ± 0.03 K/μl
- Platelets [3, 11]: 863 ± 26 K/μl
- RBC [3, 11]: 8.58 ± M/μl
- Retic. [3, 11]: 0.162 ± 0.014 M/μl
- WBC [3, 11]: 7.0 ± K/μl
- bone marrow cellularity ([3]; day six, AZT 100 mg/kg i.p. three times daily + oral TAU 230 mg/kg): 8.89±0.46
- RBC levels ([3]; day six, AZT i.p. + oral TAU 460 mg/kg/treatment): 9.15±0.07 ×10^6 per microliter
- WBC counts ([3]; day six, AZT i.p. + oral TAU 920 mg/kg): 8.46±0.63 ×10^3 per microliter

Structure (SMILES): O=c1ccn([C@@H]2O[C@H](CO)[C@@H](O)[C@H]2O)c(=O)[nH]1 [Urd, uridine]
- concentration at 0 h ([4]; female, Balb/C, mouse, plasma, oral, 1000 mg/kg, 0 hr (basal, before TAU or uridine), DPM 25 mg/kg i.p. 30 min before where given, read-out: Plasma uridine levels): 2 µM
- concentration at 0.5 h ([4]; female, Balb/C, mouse, plasma, oral, 0.5 hr after uridine 1000 mg/kg p.o. or equimolar TAU 1500 mg/kg p.o., ± DPM 25 mg/kg i.p., read-out: Plasma uridine levels): 4 µM
- concentration at 1 h ([4]; female, Balb/C, mouse, plasma, oral, 1 hr after uridine 1000 mg/kg p.o. or equimolar TAU 1500 mg/kg p.o., ± DPM 25 mg/kg i.p., read-out: Plasma uridine levels): 6 µM
- concentration at 2 h ([4]; female, Balb/C, mouse, plasma, oral, 2 hr after uridine 1000 mg/kg p.o. or equimolar TAU 1500 mg/kg p.o., ± DPM 25 mg/kg i.p., read-out: Plasma uridine levels): 4 µM
- concentration at 4 h ([4]; female, Balb/C, mouse, plasma, oral, 4 hr after uridine 1000 mg/kg p.o. or equimolar TAU 1500 mg/kg p.o., ± DPM 25 mg/kg i.p., read-out: Plasma uridine levels): 2 µM
- peak plasma uridine levels ([4]; uridine 1000 mg/kg p.o. or equimolar TAU 1500 mg/kg p.o., ± DPM 25 mg/kg i.p.): 6 µM

From patent US7166581B1, “Treatment of chemotherapeutic agent and antiviral agent toxicity with acylated pyrimidine nucleosides” (Wellstat Therapeutics Corporation, priority 1987, dated 2007)
